Results from the supplement of paper PMC10307832.

Tests used:
Experiment in all cases: relative viability (nuclei count vs DMSO), 5 days (fraction); higher = more cells survive
[1] = compound: Cn1c(=O)n(-c2ccc(C(C)(C)C#N)cc2)c2c3cc(-c4cnc5ccccc5c4)ccc3ncc21 [Dactolisib] + O=C(c1cc(Cc2n[nH]c(=O)c3ccccc23)ccc1F)N1CCN(C(=O)C2CC2)CC1 [Olaparib] (partner 8 µM)
Procedure, shortened: (§1)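 Five library-drug doses in √10 steps were combined with a fixed anchor-drug dose, or a single drug was given alone, by pin tool to lung cancer cell lines in 1536-well plates the day after seeding. Nuclei were stained and counted after 5 days. Relative viability is the nuclei count in treated wells over that in vehicle wells, taken as the median of duplicate plates.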

[2] = compound: Cn1c(=O)n(-c2ccc(C(C)(C)C#N)cc2)c2c3cc(-c4cnc5ccccc5c4)ccc3ncc21 [Dactolisib] + C[C@@H](Oc1cc(-c2cnn(C3CCNCC3)c2)cnc1N)c1c(Cl)ccc(F)c1Cl [Crizotinib] (partner 1 µM)
Procedure, shortened: as §1

[3] = compound: C1CCC(CC1)N(CCNCCC2=C3C(=C(C=C2)O)NC(=O)CO3)C(=O)CCNCCC4=CC(=C(C=C4)Cl)Cl [AZ505] + C[C@]1(O)C[C@@H](c2nc(-c3ccc4ccc(-c5ccccc5)nc4c3)c3c(N)nccn32)C1 [Linsitinib] (partner 1 µM)
Procedure, shortened: as §1

[4] = compound: Cn1c(=O)n(-c2ccc(C(C)(C)C#N)cc2)c2c3cc(-c4cnc5ccccc5c4)ccc3ncc21 [Dactolisib] + Nc1nc2[nH]cc(CCc3ccc(C(=O)N[C@@H](CCC(=O)O)C(=O)O)cc3)c2c(=O)[nH]1 [Pemetrexed] (partner 0.2 µM)
Procedure, shortened: as §1

| Cell Line | relative viability ([1]; first compound 0.002 µM) | relative viability ([1]; first compound 0.006325 µM) | relative viability ([1]; first compound 0.02 µM) | relative viability ([1]; first compound 0.06325 µM) | relative viability ([1]; first compound 0.2 µM) | relative viability ([2]; first compound 0.002 µM) | relative viability ([2]; first compound 0.006325 µM) | relative viability ([2]; first compound 0.02 µM) | relative viability ([2]; first compound 0.06325 µM) | relative viability ([2]; first compound 0.2 µM) | relative viability ([3]; first compound 0.08 µM) | relative viability ([3]; first compound 0.253 µM) | relative viability ([3]; first compound 0.8 µM) | relative viability ([3]; first compound 2.53 µM) | relative viability ([3]; first compound 8 µM) | relative viability ([4]; first compound 0.002 µM) | relative viability ([4]; first compound 0.006325 µM) | relative viability ([4]; first compound 0.02 µM) | relative viability ([4]; first compound 0.06325 µM) | relative viability ([4]; first compound 0.2 µM) |
| --- | --- | --- | --- | --- | --- | --- | --- | --- | --- | --- | --- | --- | --- | --- | --- | --- | --- | --- | --- | --- |
| SK-LU-1 | 0.428 | 0.406 | 0.539 | 0.402 | 0.216 | 0.912 | 0.936 | 0.681 | 0.455 | 0.352 | 0.45 | 0.592 | 0.798 | 0.588 | 0.765 | 0.944 | 0.913 | 0.874 | 0.747 | 0.439 |
| COR-L23 | 0.345 | 0.351 | 0.312 | 0.182 | 0.141 | 0.787 | 0.604 | 0.619 | 0.283 | 0.165 | 0.684 | 0.772 | 0.749 | 0.855 | 0.692 | 0.194 | 0.198 | 0.195 | 0.197 | 0.183 |
| NCI-H2087 | 0.719 | 0.474 | 0.631 | 0.197 | 0.243 | 0.952 | 0.85 | 1.04 | 0.63 | 0.785 | 0.986 | 0.846 | 0.986 | 0.932 | 0.973 | 0.627 | 0.684 | 0.625 | 0.521 | 0.506 |
| LC-2-ad | 0.825 | 0.749 | 0.747 | 0.864 | 0.852 | 0.403 | 0.477 | 0.505 | 0.338 | 0.4 | 0.819 | 0.901 | 0.844 | 0.883 | 0.845 | 0.263 | 0.302 | 0.276 | 0.264 | 0.272 |
| NCI-H1915 | 0.254 | 0.253 | 0.293 | 0.264 | 0.246 | 0.889 | 0.903 | 0.916 | 0.713 | 0.529 | 1.14 | 1.1 | 1.03 | 0.942 | 1.04 | 0.355 | 0.508 | 0.455 | 0.425 | 0.42 |
| NCI-H2023 | 0.484 | 0.43 | 0.281 | 0.122 | 0.0803 | 0.599 | 0.576 | 0.437 | 0.176 | 0.129 | 0.685 | 0.626 | 0.669 | 0.814 | 0.552 | 0.172 | 0.182 | 0.179 | 0.101 | 0.0876 |
| COR-L 105 | 0.629 | 0.744 | 0.76 | 0.592 | 0.367 | 0.85 | 0.874 | 0.561 | 0.645 | 0.283 | 0.703 | 1.05 | 0.761 | 0.779 | 1.01 | 1.22 | 1.25 | 0.891 | 0.892 | 0.356 |
| RERF-LC-KJ | 1.06 | 0.893 | 0.829 | 0.385 | 0.403 | 1.01 | 0.86 | 0.84 | 0.668 | 0.582 | 0.857 | 0.85 | 0.929 | 0.897 | 0.902 | 0.488 | 0.479 | 0.46 | 0.433 | 0.434 |
